US20100010087A1, “Methods for Inducing Stem Cell Migration and Specialization with EC-18” (priority 2008, published 2010)

What was measured:
SDF-1 (Cxcl12) mRNA = assay: SDF-1 mRNA expression in lung and liver of mice after CLP (RT-PCR); assay type: in vivo; details: 50 mg/kg
Procedure: (§1) Specifically, donor transgenic GFP (C57BL/6) mice are given 5-FU (150 mg/kg) to kill mature cells. Bone marrow is harvested. C57BL/6 congenic recipient mice are exposed to lethal doses of whole-body radiation (10Gy Cesium-137 at 1.0 Gy/min) and then undergo bone marrow transplant. Engraftment of GFP-BMSC is confirmed after five weeks in select sacrificed mice. Surviving mice are GFP-BMSC chimeras available for investigation. These GFP-BMSC mice then undergo CLP. Specifically, the mice are anesthetized and undergo laparotomy. The sham group undergo laparotomy only. The non-sham group has the cecum ligated and punctured (size and number of punctures may vary depending on the desired severity of injury). Mice are sacrificed at six, twelve and 24 hours. […] Serum is analyzed for levels of cytokines (TNF-α, IL-1, IL-2, IL-4, IL-6, IL-10, and IFN-γ) and chemokines (SDF-1 and SCF). […]
(§2) Additionally, four groups of 20 mice: sham group underwent celiotomy but not CLP; control group underwent CLP and administration of PBS; simultaneous treatment group (STG) had administration of 50 mg/kg MADG PO. […] Serum and tissue levels of pro- and anti-inflammatory cytokines were measured. Serum levels of chemokines stromal cell-derived factor (SDF-1) and stem cell factor (SCF) were measured to ascertain if effects of MADG involve stimulation of bone marrow stromal and stem cells. […]

SCF (Kit) mRNA = assay: SCF mRNA expression in lung and liver of mice after CLP (RT-PCR); assay type: in vivo; details: 50 mg/kg
Procedure: as §1, §2

CCCCC/C=C\C/C=C\CCCCCCCC(=O)OC(COC(C)=O)COC(=O)CCCCCCCCCCCCCCC (racemic) [EC-18, 1-palmitoyl-2-linoleoyl-3-acetyl-rac-glycerol]
increased early expression: Cxcl2 (SDF-1) mRNA expression in the liver (SDF-1 (Cxcl12) mRNA; liver, compared to controls (FIG. 5A)) | Cxcl2 (SDF-1) mRNA expression in the lung (SDF-1 (Cxcl12) mRNA; lung, compared to controls (FIG. 4A)) | kit (SCF) mRNA expression in the liver (SCF (Kit) mRNA; liver, compared to controls (FIG. 5B)) | kit (SCF) mRNA expression in the lung (SCF (Kit) mRNA; lung, compared to controls (FIG. 4B))
